{"source": "patent US11344601B2", "about": "“Tumor microenvironment-related target TAK1 and application thereof in inhibition of tumor” (Shanghai Institutes for Biological Sciences, Chinese …, priority 2017, dated 2022)", "key": {"[1]": {"molecular_target": "T1, TAK1 (Homo sapiens, UniProt O43318)", "T1 construct": "PSC27 cells were treated with bleomycin and cell lysates were subject to anti-p-TAK1-mediated IP precipitation; endogenous in cells; host or cells: PSC27 human prostate stromal cells", "T1 sequence (O43318 1-606)": "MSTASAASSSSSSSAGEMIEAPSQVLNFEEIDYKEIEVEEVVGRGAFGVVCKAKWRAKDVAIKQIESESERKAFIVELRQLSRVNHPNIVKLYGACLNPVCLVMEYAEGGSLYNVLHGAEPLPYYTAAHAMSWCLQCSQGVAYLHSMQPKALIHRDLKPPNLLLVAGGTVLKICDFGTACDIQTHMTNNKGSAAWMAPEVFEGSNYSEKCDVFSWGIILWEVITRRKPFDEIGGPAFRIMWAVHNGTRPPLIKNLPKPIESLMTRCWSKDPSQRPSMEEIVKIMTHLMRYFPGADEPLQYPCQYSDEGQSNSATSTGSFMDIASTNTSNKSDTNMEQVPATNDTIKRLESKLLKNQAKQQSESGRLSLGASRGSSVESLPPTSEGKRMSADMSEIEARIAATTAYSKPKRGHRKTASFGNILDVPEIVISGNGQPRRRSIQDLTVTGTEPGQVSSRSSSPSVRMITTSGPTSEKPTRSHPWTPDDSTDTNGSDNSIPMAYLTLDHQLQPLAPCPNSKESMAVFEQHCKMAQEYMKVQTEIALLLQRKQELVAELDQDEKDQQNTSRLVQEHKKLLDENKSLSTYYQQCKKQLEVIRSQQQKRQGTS", "assay": "IP, in vitro kinase assay and Western blot of TAK1 activation in damaged PSC27 stromal cells", "type": "cell-based", "procedure": "In the presence of the TAK1 inhibitor 5Z-7, PSC27 cells were treated with bleomycin and cell lysates were subject to anti-p-TAK1-mediated IP precipitation. IP products were analyzed by in vitro kinase assay, and MKK6 was used as TAK1 substrate. p38 phosphorylation was analyzed by Western blot with GAPDH as the loading control. In addition, IL-1α (20 ng/ml) was used to treat stromal cells and was further analyzed by similar IP and in vitro kinase assay."}, "[2]": {"test_system": "IL-8", "assay": "IL-8 protein expression of damaged stromal cells (Western blot, ELISA)", "type": "cell-based, human", "method": "FIG. 15. The stromal cells were collected on Day 7 after bleomycin and/or 5Z-7 treatment. The lysates were analyzed by Western blot for their phosphorylation levels of ATM and TAK1, and activation of TAK1 downstream substrate JN K and p38. IL-8, a chemokine was used as a marker secreted factor of SASP, whose expression level was simultaneously analyzed. FIG. 33. The extracellular fluid released by each group of cells were tested by ELISA to determine the protein expression level of the secreted factor IL-8."}, "[3]": {"test_system": "prostate cancer epithelial cell lines (BPH1, M12, PC3, DU145 and LNCaP)", "assay": "Chemotherapy resistance of cancer cells conferred by extracellular fluid of damaged PSC27 stromal cells", "type": "cell-based, human", "settings": "stromal cells treated with TAK1 inhibitor", "method": "c. Experimental Treatment In Vitro • 100 nM docetaxel (DTX), 100 nM paclitaxel (PTX), 200 nM vincristine (VCR), 50 μg/ml bleomycin (BLEO), 1 μM mitoxantrone (MIT), or 10 Gy ^137CS ionizating radiation (γ-radiation at 743 rad/min, RAD) was added to the culture medium when PSC27 cells grown to 80% (PSC27-Pre) to produce cell damage. After drug treatment for 6 hours, the cells were simply washed by PBS for 3 times and kept in the culture medium for 7 to 10 days, followed by subsequent experiments. 2. Plasmid Preparation and Lentiviral Transfection • Full-length human IKKα and Flag were cloned as a fusion protein between the restriction sites BamHI and XbaI in the expression vector pCR3.1. Full-length human mTOR and GST were cloned as a fusion protein between a pair of NotI restriction sites in the expression vector pcDNA3. Packaging cell line 293FT was used for cell transfection and lentivirus production. […] FV1000 laser scanning confocal microscopy (Olympus) was used to obtain cellular confocal fluorescence images to determine the extent of DNA damage. • Antibody anti-TAK1 used for histological IHC staining in clinical prostate, non-small cell lung cancer patients and breast cancer patients, was purchased from Proteintech, idib. […] Quantitative PCR for Measuring Gene Expression […]"}}}
{"smiles": "COc1cc(O)c2c(c1)/C=C/C[C@H](O)[C@H](O)C(=O)/C=C\\C[C@H](C)OC2=O", "note": "[5Z-7, 5z-7-oxozeaenol]", "values": [{"measurement": "activation of TAK1 in damaged stromal cells", "setting": "[1]; bleomycin-treated PSC27, 500 nM 5Z-7, IP and in vitro kinase assay with MKK6", "value": "largely abolished"}, {"measurement": "physical interaction between TAK1 and TRAF6", "setting": "[1]; p-TAK1 antibody IP after bleomycin", "value": "abolished"}, {"measurement": "chemokine IL-8 protein levels induced by DNA damage", "setting": "[2]; ELISA of extracellular fluid, bleomycin plus inhibitor", "value": "significantly reduced"}, {"measurement": "protein expression level of IL-8", "setting": "[2]; Western blot, Day 7 after bleomycin and/or 5Z-7", "value": "significantly downregulated"}, {"measurement": "resistance of cancer cells to docetaxel conferred by stromal cell extracellular fluid", "setting": "[3]; docetaxel", "value": "attenuate the acquired resistance"}, {"measurement": "resistance of cancer cells to mitoxantrone conferred by stromal cell extracellular fluid", "setting": "[3]; mitoxantrone at IC50 concentration", "value": "significantly weakened"}]}
